This is an account of results in a melting point compilation (Tetko et al.; mined from patent text by program, amines drawn as free bases though some values may be those of a salt).

By melting point is commonly meant the temperature, or range, at which the solid turns liquid.

With `CS(=O)(=O)CCCn1c(=N)sc2cc(OC(F)(F)F)ccc21`, the melting point stood at 180 °C.

For the compound `C(=C\c1nc(COc2ccc(CCCCCCn3ccnc3)cc2)co1)/c1ccccc1`, the melting point is 108 to 109 °C.

Regarding `CC(C)Oc1cccc(-c2ccc3cnc(Nc4ccc(C5CCN(CC(N)=O)CC5)cc4)nn23)c1`, the melting point lay within 233 to 235 °C.

In turn, `CN(C)S(=O)(=O)c1ccccc1Cl` came in with a melting point of 49 to 51 °C.

`CCCCC1CCC2NC(=O)CC2C1` (centres undefined) came in with a melting point of 109 to 111 °C.

In turn, `OCCc1ccc(Oc2cc(C(F)(F)F)ccn2)cc1` showed a melting point of 78 to 79 °C.

Compound `c1ccc(NC2CCc3ccccc3C2)cc1` (centres undefined) yielded a melting point of 193 to 196 °C.

In turn, `CS(=O)(=O)c1ccc(Oc2ccc3[nH]c(C4=NCC(CC(=O)NCC(F)(F)F)S4)cc3c2)cn1` (centres undefined) gave a melting point of 234 to 235 °C.

Regarding `CN1CCC(C2(O)c3sccc3CCn3ncnc32)CC1` (centres undefined), the melting point amounted to 158 °C.

In turn, `Oc1cccc(OCCn2ccnc2)c1` gave a melting point of 125 to 127 °C.

Take `CCNC(=O)CCC(=O)c1ccc(NS(C)(=O)=O)cc1`: the melting point was 210 to 213 °C.

Consider `CC(=O)CC1(C(=O)c2ccc([N+](=O)[O-])cc2)C=CC(Cl)=C(Cl)C1` (centres undefined), for which the melting point lay within 121 to 122 °C.

For `CNC(=C[N+](=O)[O-])NCCSCc1ccccn1`, the melting point was in the range of 112 to 113 °C.

Regarding `COC(=O)C(=O)c1cc(Cl)c(OCCOc2ccc3ccccc3c2)c(Cl)c1`, the melting point lay in the range of 120 to 121 °C.

Compound `CC(C)c1c(Sc2ccccc2)n(CC2CC=CC2)c(=O)[nH]c1=O` registered a melting point of 131 to 134 °C.

On to `C=CCN(CC=C)C(=O)C(C#N)(CC)c1ccccc1` (centres undefined), for which the melting point was in the range of 33 to 35 °C.

In turn, `COc1cc2c(c(Cl)c1Cl)C(=O)C(C)(c1ccccc1)C2c1ccccc1` (centres undefined) showed a melting point of 197 to 207 °C.

`CC(C)(C)OC(=O)N1CC=C(C#Cc2ccc3c(c2)NC(=O)CC(c2cccc(C#N)c2)=N3)CC1` returned a melting point of 239 °C.

For `CC(C)(O)Cn1cnc2c(N)nc3cc(CCC(=O)N4CCOCC4)ccc3c21`, the melting point lay in the range of 217 to 218 °C.

`CC(C)c1nn(-c2ccccn2)c(-c2ccc(F)cc2)c1/C=C/C=O` yielded a melting point of 105 to 107 °C.

Take `CCOC(=O)c1ccnc(NC(=O)CCc2ccccc2)c1`: the melting point lay within 107 to 108 °C.

Take `CCOC(=O)c1nnc2ccc(I)cc2c1O`: the melting point is 242 to 244 °C.

In turn, `O=C(NCCCO)c1c([N+](=O)[O-])ccc(N(CCBr)CCBr)c1[N+](=O)[O-]` gave a melting point of 115 to 117 °C.

Consider `Cn1c(N2CCOCC2)nc(C(=O)NCc2ccc(Cl)c(Cl)c2)c(O)c1=O`, for which the melting point is 100 to 102 °C.

In turn, `COC(=O)c1ccc(C(=O)NN)cn1` gave a melting point of 177 to 180 °C.

Take `CCOC(=O)CCNC(=S)Nc1ccc2cn[nH]c2c1`: the melting point is 145 °C.

`CCOC(=O)c1cc(N=Cc2ccccc2)ccc1O` had a melting point of 63 to 65 °C.

The compound `CCCCCCCCCCCCCCN(C(=O)CCCCCCCCCCC)C1(N)OC(CO)C(O)C(O)C1C(=O)CNC(=O)C(C)(N)C(=O)C(C)N` (centres undefined) yielded a melting point of 132 to 134 °C.

For `O=C1c2ccccc2C(=O)N1c1cccnc1Cl`, the melting point was in the range of 156 to 157 °C.

With `CCOC(=O)C(=CNc1cccc(N)c1)C(=O)OCC`, the melting point was 71 to 74 °C.

For `c1ccc2[nH]c(Cc3ccncc3)nc2c1`, the melting point was 185 to 186 °C.

`CS(=O)(=O)Cc1cnc2ccccc2c1O` displayed a melting point of 280 to 282 °C.

As to `CC(C)(C)OC(=O)Nc1ccc(-c2ccccc2F)cc1[N+](=O)[O-]`, the melting point fell in the range of 131 to 133 °C.

Compound `Nc1c(Cl)cc(C(O)CNCCCCCOCCCc2ccc(C(=O)O)o2)cc1Cl` (centres undefined) showed a melting point of 89 to 91 °C.

With `O=C(NCc1ccc(Cl)cc1)c1cn2c3c(cc(C#CCO)cc3c1=O)CC2CO` (centres undefined), the melting point lay in the range of 224 to 225 °C.

The compound `O=C(Nc1nccs1)c1c(C(F)F)nc2c(C(F)(F)F)cccc2c1O` returned a melting point of 226 °C.

On to `CCOC(=O)c1nccn1-c1nc(-c2ccc(Cl)cc2)c(CCCOc2ccccc2OC)o1`, for which the melting point was in the range of 90 to 91 °C.

Regarding `CC(C)Oc1cc(CCCOc2ncccc2CC(=O)O)n(Cc2ccc(Cl)cc2OC(C)C)n1`, the melting point lay in the range of 82 to 84 °C.

On to `CC(C)(C)c1cc(C=O)cc(Cl)c1O`, for which the melting point turned out to be 123 °C.

`O=c1[nH]nc(-c2ccccc2)c(-c2ccccc2)c1-c1ccccc1` displayed a melting point of 290 to 292 °C.

Turning to `COc1cccc(Nc2nnc(Cc3ccncc3)c3ccccc23)c1`, the melting point was 118 to 120 °C.

For the compound `O=C(NC1Cc2ccc(-c3ccc(F)cc3)cc2C1)c1ccc(F)cc1` (centres undefined), the melting point was 193 °C.

The compound `COc1cc2cc3[nH]cc(C#N)c(=O)c3cc2cc1OC` had a melting point of over 265 °C.

The compound `CCN1CCc2ccc(Nc3ncc(Cl)c(NCCC(=O)NC)n3)cc2CC1` returned a melting point of 206 °C.

As to `COc1cccc(C(=O)C(=NN)c2cccc(OC)c2)c1`, the melting point lay within 109 to 110 °C.

Take `COc1ccc(CCNC(=S)N2CCN(c3ncnc4cc(OC)c(OC)cc34)CC2)cc1OC`: the melting point is 98 to 100 °C.

`CON1CCC2(CC1)C(=O)C(c1c(C)ccc(Cl)c1C)([N+](=O)[O-])C(=O)N2OC` (centres undefined): the melting point fell in the range of 94 to 97 °C.

Regarding `O=C1CCN(C(=O)c2ccc(Cl)cc2Cl)c2cc(Cl)ccc21`, the melting point is 159 to 163 °C.

In the case of `CCN1CCN(Cc2cc(-c3ccc4c(Nc5ccc(Cl)cc5Cl)c(C#N)cnc4c3)cs2)CC1`, the melting point was 182 to 184 °C.

For `CNc1ccc(-c2cnc3[nH]cc(C(=O)C4(C)CCCCC4)c3n2)cc1`, the melting point fell in the range of 273 to 275 °C.

As to `O=C1CCN(C(=O)Cl)c2cc(Cl)ccc21`, the melting point lay in the range of 150 to 153 °C.

`CC(C)CCCC(C)C1CCC2C3CC=C4CC(OCC(=O)O)CCC4(C)C3CCC12C` (centres undefined) showed a melting point of 160 °C.

As for `CNC(=O)COc1ccc(C(=O)CN2CCN(c3ccncc3)CC2)cc1`, the melting point was in the range of 169 to 171 °C.

`CONC(=O)Nc1ccc(-c2sc3c(c2CN(C)Cc2ccccc2)c(=O)n(-c2ccccc2)c(=O)n3Cc2c(F)cccc2F)cc1` gave a melting point of 204 to 205 °C.

With `N#Cc1cc(-c2c(-c3ccccc3)nn3ccccc23)cn(CCC(=O)O)c1=O`, the melting point is 196 to 200 °C.

Turning to `Cc1noc(NC(=O)N2CCN(c3ccnc(-c4ccc(F)cc4F)c3)CC2)c1C`, the melting point is 234 to 235 °C.

The compound `CCOC(=O)/C=C/c1ccc(OCCOC)cc1OS(=O)(=O)C(F)(F)F` returned a melting point of 37.1 to 37.3 °C.

Regarding `CC1CNC(CN(CC(=O)O)C(=O)c2ccccc2)c2ccccc21` (centres undefined), the melting point was 157 °C.

In the case of `CCn1c(=O)c2c(nc(/C=C/c3ccc(OC(C)=O)cc3)n2C)n(CC)c1=O`, the melting point was determined as 198 °C.

Turning to `CCN(CC)CCOC(=O)c1cnc2ccn(-c3ccccc3)n2c1=O`, the melting point lay within 127 to 130 °C.

The compound `CCS(=O)(=O)c1ccc(-n2cncc2-c2ccc([N+](=O)[O-])cc2)cc1` gave a melting point of 190 to 194 °C.

Compound `CCOC(=O)COc1ccc(CN2C(=O)C3(COc4cc5c(cc43)OCCO5)c3ccccc32)cc1` (centres undefined) returned a melting point of 59 to 61 °C.

Take `Nc1ncnc2c1ncn2Cc1nc2c(Cl)cccc2c(=O)n1-c1ccccc1Cl`: the melting point was in the range of 273 to 274 °C.

The compound `COc1cc2c(cc1OC)C1=C(C#N)SC(C)C(=O)N1CC2` (centres undefined) showed a melting point of 170 to 171 °C.

On to `CCOC(=O)CNC(=O)c1nnc2ccc(NCCCN3CCC(OC(c4ccccc4)c4ccccc4)CC3)nn12`, for which the melting point was 152 to 155 °C.

Consider `Cc1cc(Br)cnc1CCCn1nnc2cc(Cc3cccnc3)cnc21`, for which the melting point was in the range of 109 to 110 °C.

`C#Cc1ccc(S(N)(=O)=O)s1` had a melting point of 114 to 116 °C.

Compound `CC1CC(=O)N(CCCCN2CCN(c3cncc(Cl)n3)CC2)S(=O)(=O)N1` (centres undefined) yielded a melting point of 107 to 109 °C.

Compound `CCSc1snc(OCOCC#CI)c1C#N` registered a melting point of 57 to 58 °C.

`COC(=O)C(CCSC)NC(=O)c1ccc([N+](=O)[O-])cc1-c1cc(C)cc(C)c1` (centres undefined) gave a melting point of 122 to 124 °C.

`COc1ccc(C(=O)c2ccccc2Cl)c(Cl)c1Cl` displayed a melting point of 117 to 120 °C.

Regarding `Clc1cc2snnc2s1`, the melting point fell in the range of 78 to 79 °C.

Turning to `CN(Cc1ccccc1)C1(C#N)CCN(Cc2ccccc2)CC1`, the melting point is 67 to 68 °C.

In turn, `COCOc1ccc(N(C)S(=O)(=O)c2ccc(C)cc2)c([N+](=O)[O-])c1` registered a melting point of 110 to 112 °C.

For the compound `CCCOC(Cc1ccc(OCCc2nc(C3CC3)oc2C)c2ccsc12)C(=O)O` (centres undefined), the melting point was in the range of 61 to 63 °C.

`COc1ccc(-c2c(Cl)c(CN3C(=O)CCC3=O)nc3sc4c(c23)CC/C(=N/O)C4)cc1`: the melting point fell in the range of 248 to 249 °C.

For the compound `CNC(=O)C(C)Oc1ncn(-c2ccccc2)n1` (centres undefined), the melting point was in the range of 134 to 135 °C.

As for `CS(=O)(=O)c1ccc(CCN2CC=C(c3c[nH]c(-c4ccc(F)cc4)c3-c3ccncc3)CC2)cc1`, the melting point was 207 to 209 °C.

Consider `CCOC(=O)CSc1nnc(S)s1`, for which the melting point was in the range of 67 to 68 °C.

In turn, `CCCCC(OC(=O)Nc1ccc(-c2ncn(-c3ccc(OC(F)(F)F)cc3)n2)cc1)C(=O)OCC` (centres undefined) gave a melting point of 135 to 139 °C.

`O[C@@H]1[C@H](O)[C@H](O)CO[C@H]1n1c(Br)nc2ccc(Cl)cc21` came in with a melting point of 100 °C.

Compound `Cc1cc(SC(C)C)c(NC(=O)CCCCCCSc2nc3ccccc3o2)c(SC(C)C)n1` gave a melting point of 76 to 78 °C.

On to `Nc1cc(CO)cc(S(N)(=O)=O)c1Cc1ccccc1`, for which the melting point was 159 to 161 °C.

For `COc1ccc([N+](=O)[O-])c(N2CCCC2)c1`, the melting point is 46 to 48.5 °C.

Turning to `CCCN(CCC)C(=O)Nc1nn(Cc2ccccc2)cc1C(=O)OCC`, the melting point was in the range of 114 to 115 °C.

For `COc1ccc(C(CNc2ncnc3c2ncn3C2OC(CO)C(O)C2O)c2ccccc2)cc1` (centres undefined), the melting point fell in the range of 87 to 92 °C.

`C=CCNc1nc(NCCC)c2cc([N+](=O)[O-])ccc2n1` returned a melting point of 211 to 212 °C.

As for `CO[C@@H]1CN(c2ccc3c(=O)c(C(=O)O)cn(-c4nccs4)c3n2)C[C@H]1NCC(=O)OC(C)(C)C` (relative stereo), the melting point is 185 to 188 °C.

In the case of `CCC(C(=O)N(C)C)n1cc(C)c(-c2cccs2)n1` (centres undefined), the melting point was 83 to 85 °C.
